Entries after “also recorded” stand apart in the source; their conditions may differ. Marks after values point to notes of the source that are not given here.
Assays:
[1] = test system: P388 murine leukemia; assay: in vivo anticancer activity in murine leukemia model, CD2F1 mice injected with P388 cells; details: for Median survival time: 1 million P388 cells ip; for T/C % (median survival time of treated mice divided by that of control mice x 100): P388 ip
Experimental: Groups of CD2F1 mice are injected intraperitoneally (ip) with 1 million P388 cells. There were 10 mice per group. In the doxorubicin group 0.8 mg/kg is administered ip consecutively for 9 days on days 1-9 of the study. […] A control group is injected with vehicle. Median survival times are calculated for each group. Activity of a compound is expressed as the amount of prolonged survival (median survival of the treated group divided by the median survival time of the control group, multiplied by 100, T/C %).

[2] = test system: H9c2 cells; assay: growth inhibition of non-cancerous H9c2 cells; type: cell-based; details: Rattus norvegicus
[3] = test system: MCF-7 human mammary tumor cells; assay: inhibition of growth of MCF-7 cells (tritiated thymidine incorporation); details: for IC30 for inhibition of growth: MCF-7, 24 hours drug exposure; for fold increase in the cancer growth inhibition potency of paclitaxel: MCF-7, anthracycline at IC30 concentration
Experimental: (§1) The inhibitory effects of doxorubicin (I), 13-deoxydoxorubicin (II), 5-imino-13-deoxydoxorubicin (III), daunorubicin (IV), 13-deoxydaunorubicin (V), and 5-imino-13-deoxydaunorubicin (VI) on the growth of MCF-7 human mammary tumor cells and P388 murine leukemia cells are measured in vitro. The MCF-7 and P388 cell lines used for these studies are cultured and maintained utilizing the protocol from the American Type Culture Collection (ATCC) protocols. MCF-7 media was EMEM (Eagle Minimum
(§2) Essential Medium; ATCC) and P388 media is Dulbecco's modified Eagle's medium (DMEM, ATCC). Working media for MCF-7 and P388 is made by the addition of 50 ml FBS (fetal bovine serum, MCF-7) or 50 ml horse serum (ATCC, P388) to 450 ml EMEM media (MCF-7) or DMEM (P388). 4.5 g/L glucose (Sigma) is also added to the DMEM (P388). Five ml Penicillin/Streptomycin (P/S, Gibco) is added to the MCF-7 and P388 working media. Cells are grown at 37° C. in 5% CO2 for 1 week, and 25 ml fresh media is added. Cells are passaged when they reach a density of 1-2×10^6 cells/ml by transferring to a new flask containing fresh media.
(§3) Using sterile technique, MCF-7 cells are harvested from the T-75 flasks by removing and discarding the culture medium. 5 ml of 0.25% Trypsin-EDTA solution (Sigma) is added to each flask to de-attach the cells. The flask is placed in the incubator for 5-10 minutes to facilitate dispersal. 10 ml of complete growth medium is added, directly decanted into 50 ml tubes then centrifuged for 10 minutes at 200×g. P388 cells are harvested by directly decanting media into 50 ml tubes and centrifuging for 10 minutes at 200×g. The pellet (MCF-7 and P388) is resuspended in 5 ml and the cells dispersed by expelling gently through an 18 g needle fitted to a syringe. The cells are counted using a hemocytometer and diluted with media to 150,000 cells/ml. The diluted cells are pipetted into 96-well plates at a concentration of 15,000 cells/well in 100 μl. The plates are covered and incubated at 37° C. for 48 hours.
(§4) Dilutions of the anthracyclines and paclitaxel are made up in cell-specific serum-free media. The drugs at appropriate concentrations are added to all wells in 50 μl aliquots and the cells are grown in the presence of the drugs (anthracyclines/paclitaxel) for 24 hours. Tritiated thymidine (ICN) is diluted in serum-free cell-specific media to a concentration of 1 μCi/50 μl. All wells used for analysis are spiked with 50 μl aliquots of media containing tritiated thymidine. Following a 4-hour exposure to isotope, tritiated thymidine incorporation into DNA is measured by hypotonic lysis of cells with deionized water and collection of cellular contents onto Whatman GF-C filters using a Brandel cell harvester. Prior to harvesting MCF-7 cells, the media is aspirated, 150 μL of 0.25% Trypsin-EDTA is added to each well to de-attach the cells. Filters are allowed to dry, placed into 7 ml scintillation vials containing 5 ml scintillation cocktail and counted in a scintillation counter. In preliminary experiments, the concentrations of anthracyclines that would produce a 30% inhibition of growth (inhibitory concentration 30, IC30) on MCF-7 cells and 10% inhibition of growth (IC10) on P388 cells are determined.

[4] = optimum antitumor dose relative to doxorubicin; details: in vivo
[5] = test system: P388 murine leukemia cells; assay: inhibition of growth of P388 cells in vitro (tritiated thymidine incorporation); details: for IC10 for inhibition of growth: P388, 24 hours drug exposure
Experimental: as §1, §2, §3, §4

[6] = cardiotoxicity evaluation in chronically treated rabbits (LVFS, hematocrit, isolated atria dF/dt, histopathology); details: rabbit; for cardiotoxicity with chronic dosing / HCT % (hematocrit), Post / Histopathology Score / dF/dt (myocardial contractility of isolated atria) / FS % (left ventricular fractional shortening), Post: in vivo; for HCT % (hematocrit), Post / FS % (left ventricular fractional shortening), Post: iv
Experimental: Twenty-four age matched New Zealand white rabbits weighing 3.0 kg are randomized into four groups (N=6 rabbits/group). […] Doses of drug or vehicle are administered iv into an ear vein two times per week. Serum and blood samples are obtained weekly and M-mode echocardiology performed weekly or every other week to obtain left ventricular fractional shortening (LVFS) to assess cardiac function. Food consumption is measured daily and body weight is measured weekly. Control rabbits are fed the same amount of food as doxorubicin treated rabbits (pair fed). At sacrifice, apex and left ventricular free wall samples are obtained and preserved in 10% buffered formalin for histologic scoring and analysis via light microscopy. Left ventricular tissue samples are also obtained to assess cardiac levels of anthracyclines and metabolites.
At sacrifice, the heart is removed and two types of tissue are sampled from the heart, ventricular apex and left ventricular free wall, and stored in 10% formalin. Each tissue is prepared for three different stains: H&E, toluidine blue, and trichcrome. The tissues are scored (blind) using a modification of the Billingham scale. The scoring scale is from 0-4 with 0=<10% of cells or tissue lesioned, 1 to 10%-19% of cells or tissue lesioned, 2 to 20%-29% of cells or tissue lesioned, 3 to 30%-39% of cells or tissue lesioned, 4 to 40% or more cells or tissue lesioned. The ventricular apex and the left ventricular free wall are analyzed separately. Each receives a score for mononuclear infiltration, fibrosis, and cytoplasmic vacuolization. Thus, each rabbit has six scores, three for the apex (mononuclear infiltration, fibrosis, and cytoplasmic vacuolization) and three for the left ventricular free wall (mononuclear infiltration, fibrosis, and cytoplasmic vacuolization). Each score is obtained by looking at all three stains.
Also at sacrifice, left atria are isolated, divided in half and both halves studied to assess cardiac function in vitro in a tissue bath where afterload and preload remain constant throughout the study. Cardiac contractility is measured as the maximum rate of force development (dF/dt) in response to contractions induced by electrical stimulation via punctuate electrodes located at the base of each muscle preparation.

[7] = test system: breast cancer; details: breast cancer patients; cited from earlier work
[8] = H9c2, H9c2, anthracycline alone
[9] = H9c2, H9c2, in the presence of weak growth inhibitory concentrations of paclitaxel (IC10)

COc1cccc2c1C(=O)c1c(O)c3c(c(O)c1C2=O)C[C@@](O)(CCO)C[C@@H]3OC1CC(N)C(O)C(C)O1 (stereo partly drawn) [Compound II, 13-deoxydoxorubicin]
Median survival time ([1]; drug ip on days 1-9, n = 10): 27 days | Median survival time ([1]; drug ip on days 1-9, n = 10, listed as 13-deoxydoxorubicin): significant increase in median survival time | T/C % (median survival time of treated mice divided by that of control mice x 100) ([1]; drug ip on days 1-9, n = 10): 142* % | IC50 [2, 8]: 700 nM | IC50 [2, 9]: 400 nM | IC30 for inhibition of growth [3]: 450 nM | fold increase in the cancer growth inhibition potency of paclitaxel [3]: 20 fold | optimum antitumor dose relative to the dose of doxorubicin [4]: approximately twice | IC10 for inhibition of growth [5]: 1100 nM | cardiotoxicity with chronic dosing [6]: devoid of cardiotoxicity | HCT % (hematocrit), Post [6]: 23.8* %

COc1cccc2c1C(=N)c1c(O)c3c(c(O)c1C2=O)C[C@@](O)(CCO)C[C@@H]3OC1CC(N)C(O)C(C)O1 (stereo partly drawn) [Compound III]
Median survival time ([1]; drug ip on days 1-9, n = 10): 27 days | T/C % (median survival time of treated mice divided by that of control mice x 100) ([1]; drug ip on days 1-9, n = 10): 142* % | IC50 [2, 8]: 1500 nM | IC50 [2, 9]: 210 nM | IC30 for inhibition of growth [3]: 750 nM | fold increase in the cancer growth inhibition potency of paclitaxel [3]: 220 fold | optimum antitumor dose relative to the dose of doxorubicin [4]: up to 7 times | IC10 for inhibition of growth [5]: 3500 nM | cardiotoxicity with chronic dosing [6]: devoid of cardiotoxicity | HCT % (hematocrit), Post [6]: 33.3* %

CC[C@]1(O)Cc2c(O)c3c(c(O)c2[C@@H](OC2CC(N)C(O)C(C)O2)C1)C(=O)c1c(OC)cccc1C3=O (stereo partly drawn) [Compound V, 13-deoxydaunorubicin]
IC30 for inhibition of growth [3]: 645 nM | IC10 for inhibition of growth [5]: 700 nM

CC[C@]1(O)Cc2c(O)c3c(c(O)c2[C@@H](OC2CC(N)C(O)C(C)O2)C1)C(=N)c1c(OC)cccc1C3=O (stereo partly drawn) [Compound VI]
IC30 for inhibition of growth [3]: 875 nM | IC10 for inhibition of growth [5]: 1700 nM

COc1cccc2c1C(=O)c1c(O)c3c(c(O)c1C2=O)C[C@@](O)(C(C)=O)C[C@@H]3OC1CC(N)C(O)C(C)O1 (stereo partly drawn) [Daunorubicin (IV), daunorubicin]
IC30 for inhibition of growth [3]: 750 nM | IC10 for inhibition of growth [5]: 300 nM

COc1cccc2c1C(=O)c1c(O)c3c(c(O)c1C2=O)C[C@@](O)(C(=O)CO)C[C@@H]3OC1CC(N)C(O)C(C)O1 (stereo partly drawn) [Doxorubicin (I), doxorubicin]
Median survival time ([1]; drug ip on days 1-9, n = 10): 28 days | T/C % (median survival time of treated mice divided by that of control mice x 100) ([1]; drug ip on days 1-9, n = 10): 147* % | T/C % (median survival time of treated mice divided by that of control mice x 100) ([1]; drug ip on days 1-9, n = 10, listed as Doxorubicin): 147% | anticancer response rate [7]: 35-50% | IC50 ([2]; H9c2, anthracycline alone): 210 nM | IC30 for inhibition of growth [3]: 100 nM | fold increase in the cancer growth inhibition potency of paclitaxel [3]: 2.8 fold | IC10 for inhibition of growth [5]: 250 nM | Histopathology Score ([6]; New Zealand white): 1.81*,^+ | dF/dt (myocardial contractility of isolated atria) ([6]; New Zealand white): 15.1*,^+ gms/sec | FS % (left ventricular fractional shortening), Post ([6]; New Zealand white): 27.4*,^+ % | cumulative cardiotoxic dose ([6]; 1.25 mg/kg twice/week for 7 weeks): 17.5 mg/kg | Histopathology Score [6]: significantly increased | cardiotoxicity with chronic dosing [6]: profound cardiotoxicity | dF/dt (myocardial contractility of isolated atria) [6]: significantly reduced | FS % (left ventricular fractional shortening), Post [6]: statistically significant decrease | HCT % (hematocrit), Post [6]: 27.5* %

CC(=O)O[C@H]1C(=O)[C@@]2(C)[C@H]([C@H](OC(=O)c3ccccc3)[C@]3(O)C[C@H](OC(=O)[C@H](O)[C@@H](NC(=O)c4ccccc4)c4ccccc4)C(C)=C1C3(C)C)[C@]1(OC(C)=O)CO[C@@H]1C[C@@H]2O [Paclitaxel, paclitaxel]
anticancer response rate [7]: 32-62% | growth inhibitory effect ([3]; MCF7, paclitaxel alone, 1 to 50 nM): no growth inhibitory effect | IC50 of paclitaxel for inhibition of growth ([5]; P388, paclitaxel alone or in the presence of the anthracycline at its IC10 concentration, mean ± standard error, n = 3): no inhibitory activity; also recorded: Inactive | growth inhibitory effect ([5]; P388, paclitaxel alone, concentrations up to 2000 nM): no growth inhibitory effect

From US8158591B2, “Anticancer treatment with a combination of taxanes and 13-deoxyanthracyclines” (Gem Pharmaceuticals, LLC, priority 2006, dated 2012)
